Source: US8710038B2, “Pyrazole kinase modulators and methods of use” (Exelixis, Inc., priority 2004, dated 2014)
pIC50: −log10 of the molar value.

Assays:
c-Kit = c-Kit (Homo sapiens, UniProt P10721); experiment: c-Kit biochemical assay (AlphaScreen)
From the text: AlphaScreen technology is a proximity assay which utilizes the increase in fluorescent signal occurring when donor and acceptor beads are close in proximity. Biotinylated poly(Glu,Tyr) 4:1 is used as the kinase substrate, in conjunction with streptavidin-coated donor beads and anti-phosphortyrosine antibody PY100-coated acceptor beads. Upon phosphorylation, the peptide substrate can bind to both donor and acceptor beads giving rise to an increase in fluorescence. Compounds, ATP, biotinylated poly(Glu, Tyr) and kinases are mixed in a volume of 20 uL for 1 hr at ambient temperature using Greiner 384-well white clear bottom medium binding plates. Following incubation a 10 uL solution containing […] AlphaScreen beads, 75 mM Hepes, pH 7.4, 300 mM NaCl, 120 mM EDTA, 0.3% BSA and 0.03% Tween-20 is added to each well. After 2-16 hr incubation of the beads, plates are read in a Perkin Elmer AlphaQuest reader. The IC50 values correlates well with those of radiometric assays.
c-Kit biochemical activity was assessed using AlphaScreen™ (Perkin Elmer) technology, described above. Test compounds, ATP, biotinylated poly(Glu, Tyr) and c-Kit kinase were combined in a volume of 20 μL in a 384-well white, medium binding microtiter plate (Greiner). Reaction mixtures were incubated for 1 hr at ambient temperature. Reactions were quenched by addition of 10 uL of […] AlphaScreen bead suspension containing 75 mM Hepes, pH 7.4, 300 mM NaCl, 120 mM EDTA, 0.3% BSA and 0.03% Tween-20. After 16 hr incubation at ambient temperature plates were read using an AlphaQuest reader (Perkin Elmer).

flt-3 = molecular target: T1, flt-3 (Homo sapiens, UniProt P36888); experiment: flt-3 Luciferase-Coupled Chemiluminescent Kinase assay (LCCA); format: biochemical
T1 construct: baculovirus expressed human Flt-3 kinase domain R571-S993
T1 sequence (P36888 571-993): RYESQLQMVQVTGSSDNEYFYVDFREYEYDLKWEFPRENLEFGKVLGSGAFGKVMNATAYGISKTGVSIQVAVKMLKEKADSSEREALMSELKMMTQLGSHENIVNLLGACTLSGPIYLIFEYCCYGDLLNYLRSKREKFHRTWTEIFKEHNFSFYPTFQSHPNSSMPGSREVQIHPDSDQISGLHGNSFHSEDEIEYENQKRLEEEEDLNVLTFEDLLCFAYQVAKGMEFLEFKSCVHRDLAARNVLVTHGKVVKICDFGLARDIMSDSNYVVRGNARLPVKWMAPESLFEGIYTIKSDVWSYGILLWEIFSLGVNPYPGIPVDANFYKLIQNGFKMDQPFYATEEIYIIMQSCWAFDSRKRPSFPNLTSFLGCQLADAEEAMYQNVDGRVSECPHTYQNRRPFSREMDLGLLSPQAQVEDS
Method: In the LCCA assays, kinase activity is measured as the percent ATP consumed following the kinase reaction using luciferase-luciferin-coupled chemiluminescence. Greiner 384-well white, clear bottom, medium-binding plates are used for LCCA. Briefly, the kinase reaction is initiated by mixing compounds, ATP and kinase in a 20 uL volume. The mixture is incubated at ambient temperature for 2-4 hrs. At the end of the kinase reaction, a 20 uL luciferase-luciferin mix is added and the chemiluminescent signal is read using a Wallac Victor^2 reader. The luciferase-luciferin mix consists of 50 mM HEPES, pH 7.8, 8.5 ug/mL oxalic acid (pH 7.8), 5 (or 50) mM DTT, 0.4% Triton X-100, 0.25 mg/mL coenzyme A, 63 uM AMP, 28 ug/mL luciferin and 40,000 units of light/mL luciferase. For the LCCA assays, total ATP consumption has been standardized to 25-45% and the IC50 values correlates well with those determined by radiometric assays.
Flt-3 biochemical activity was assessed using a Luciferase-Coupled Chemiluminescent Kinase assay (LCCA) format. Kinase activity was measured as the percent ATP remaining following the kinase reaction. Remaining ATP was detected by luciferase-luciferin-coupled chemiluminescence. Specifically, the reaction was initiated by mixing test compounds, 5 μM ATP, 3 μM poly-EY and 5 nM Flt-3 (baculovirus expressed human Flt-3 kinase domain R571-S993) in a 20 uL assay buffer (20 mM Tris-HCL pH7.5, 10 mM MgCl2, 0.01% Triton X-100, 1 mM DTT, 2 mM MnCl2). The mixture is incubated at ambient temperature for 3 hours after which 20 uL luciferase-luciferin mix is added and the chemiluminescent signal read using a Wallac Victor^2 reader. The luciferase-luciferin mix consists of 50 mM HEPES, pH 7.8, 8.5 ug/mL oxalic acid (pH 7.8), 5 (or 50) mM DTT, 0.4% Triton X-100, 0.25 mg/mL coenzyme A, 63 uM AMP, 28 ug/mL luciferin and 40,000 units of light/mL luciferase.

Sequence of c-Kit (P10721 26-976): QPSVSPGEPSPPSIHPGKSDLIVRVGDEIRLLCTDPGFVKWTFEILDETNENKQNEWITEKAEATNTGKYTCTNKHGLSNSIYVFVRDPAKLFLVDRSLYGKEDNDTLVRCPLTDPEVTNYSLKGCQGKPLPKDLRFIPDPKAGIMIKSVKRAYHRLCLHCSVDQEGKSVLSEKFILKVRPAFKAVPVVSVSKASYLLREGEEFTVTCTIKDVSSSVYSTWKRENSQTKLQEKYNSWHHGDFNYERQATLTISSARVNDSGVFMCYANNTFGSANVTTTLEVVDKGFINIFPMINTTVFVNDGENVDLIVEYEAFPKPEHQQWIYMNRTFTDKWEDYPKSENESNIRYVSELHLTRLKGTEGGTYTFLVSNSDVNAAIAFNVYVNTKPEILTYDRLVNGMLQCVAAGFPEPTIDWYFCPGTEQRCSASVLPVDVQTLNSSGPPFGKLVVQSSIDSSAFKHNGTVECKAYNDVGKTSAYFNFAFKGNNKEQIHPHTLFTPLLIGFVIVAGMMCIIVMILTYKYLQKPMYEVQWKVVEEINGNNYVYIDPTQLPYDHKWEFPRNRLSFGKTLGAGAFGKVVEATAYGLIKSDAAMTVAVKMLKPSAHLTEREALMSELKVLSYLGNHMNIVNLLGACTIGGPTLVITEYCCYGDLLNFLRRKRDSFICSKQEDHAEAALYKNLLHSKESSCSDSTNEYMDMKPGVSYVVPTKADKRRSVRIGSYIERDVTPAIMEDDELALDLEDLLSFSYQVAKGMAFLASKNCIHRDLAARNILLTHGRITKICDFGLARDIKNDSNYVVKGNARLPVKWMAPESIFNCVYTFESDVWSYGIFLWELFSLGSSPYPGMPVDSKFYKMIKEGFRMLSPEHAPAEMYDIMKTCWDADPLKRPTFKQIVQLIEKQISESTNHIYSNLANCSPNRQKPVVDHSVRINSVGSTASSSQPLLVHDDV

In the case of CN1CCN(c2ccc3nc(-c4cc(-c5ccc(NC(=O)Nc6ccc(C(F)(F)F)cc6)cc5)[nH]n4)[nH]c3c2)CC1 [Entry 13, N-(4-{3-[6-(4-methylpiperazin-1-yl)-1H-benzimidazol-2-yl]-1H-pyrazol-5-yl}phenyl)-N′-[4-(trifluoromethyl)phenyl]urea], the pIC50 (c-Kit) was > 7.30 and the pIC50 (flt-3) was > 7.30.
For Cc1ccc(NC(=O)Nc2ccc(-c3cc(-c4ccc(N5CCN(C)CC5)cc4)[nH]n3)cc2)cc1C [Entry 17, N-(3,4-dimethylphenyl)-N′-(4-{5-[4-(4-methylpiperazin-1-yl)phenyl]-1H-pyrazol-3-yl}phenyl)urea], the pIC50 (c-Kit) was > 7.30 and the pIC50 (flt-3) was > 7.30.
With CN1CCN(c2ccc3nc(-c4cc(-c5ccc(NC(=O)Nc6cccc(C#N)c6)cc5)[nH]n4)[nH]c3c2)CC1 [Entry 24, N-(3-cyanophenyl)-N′-(4-{3-[6-(4-methylpiperazin-1-yl)-1H-benzimidazol-2-yl]-1H-pyrazol-5-yl}phenyl)urea] the pIC50 (c-Kit) was > 7.30 and the pIC50 (flt-3) was > 7.30.
For COc1ccc(NC(=O)Nc2ccc(-c3cc(-c4nc5cc(N6CCN(C)CC6)ccc5[nH]4)n[nH]3)cc2)cc1OC [Entry 26, N-[3,4-bis(methyloxy)phenyl]-N′-(4-{3-[5-(4-methylpiperazin-1-yl)-1H-benzimidazol-2-yl]-1H-pyrazol-5-yl}phenyl)urea], the pIC50 (c-Kit) was > 7.30 and the pIC50 (flt-3) was > 7.30.
For COc1ccc(Cl)cc1NC(=O)Nc1ccc(-c2cc(-c3ccc(N4CCN(C)CC4)cc3)[nH]n2)cc1 [Entry 27, N-[5-chloro-2-(methyloxy)phenyl]-N′-(4-{5-[4-(4-methylpiperazin-1-yl)phenyl]-1H-pyrazol-3-yl}phenyl)urea], the pIC50 (c-Kit) was > 7.30 and the pIC50 (flt-3) was > 7.30.
For CN1CCN(c2ccc(-c3cc(-c4ccc(NC(=O)Nc5ccc(Oc6ccccc6)cc5)cc4)n[nH]3)cc2)CC1 [Entry 28, N-(4-{5-[4-(4-methylpiperazin-1-yl)phenyl]-1H-pyrazol-3-yl}phenyl)-N′-[4-(phenyloxy)phenyl]urea], the pIC50 (c-Kit) was > 7.30 and the pIC50 (flt-3) was > 7.30.
Cc1ccc(F)cc1NC(=O)Nc1ccc(-c2cc(-c3nc4ccc(N5CCN(C)CC5)cc4[nH]3)n[nH]2)cc1 [Entry 38, N-(5-fluoro-2-methylphenyl)-N′-(4-{3-[6-(4-methylpiperazin-1-yl)-1H-benzimidazol-2-yl]-1H-pyrazol-5-yl}phenyl)urea] was tested, and the pIC50 (c-Kit) was > 7.30 and the pIC50 (flt-3) was > 7.30.
CN1CCN(c2cccc(-c3cc(-c4ccc(NC(=O)Nc5ccc(Cl)c(C(F)(F)F)c5)cc4)[nH]n3)c2)CC1 [Entry 40, N-[4-chloro-3-(trifluoromethyl)phenyl]-N′-(4-{3-[3-(4-methylpiperazin-1-yl)phenyl]-1H-pyrazol-5-yl}phenyl)urea] was tested, and the pIC50 (c-Kit) was 6.30 to 7.30 and the pIC50 (flt-3) was > 7.30.
COc1ccc(NC(=O)Nc2ccc(-c3cc(-c4ccc(N5CCN(C)CC5)cc4)[nH]n3)cc2)c(OC)c1 [Entry 43, N-[2,4-bis(methyloxy)phenyl]-N′-(4-{5-[4-(4-methylpiperazin-1-yl)phenyl]-1H-pyrazol-3-yl}phenyl)urea] was tested, and the pIC50 (c-Kit) was 6.30 to 7.30 and the pIC50 (flt-3) was > 7.30.
A pIC50 (c-Kit) of 6.30 to 7.30 and a pIC50 (flt-3) of 5.30 to 6.30 were found for CC(C)(C)OC(=O)Nc1ccc(-c2cc(-c3nc4ccccc4[nH]3)n[nH]2)cc1 [Entry 52, 1,1-dimethylethyl{4-[3-(1H-benzimidazol-2-yl)-1H-pyrazol-5-yl]phenyl}carbamate] in this work.
A pIC50 (c-Kit) of 5.30 to 6.30 and a pIC50 (flt-3) of 6.30 to 7.30 were found for Oc1ccc(/C=C/c2cc(-c3ccccn3)[nH]n2)cc1 [Entry 62, 4-[(E)-2-(5-pyridin-2-yl-1H-pyrazol-3-yl)ethenyl]phenol] in this work.
A pIC50 (c-Kit) of 5.30 to 6.30 and a pIC50 (flt-3) of 6.30 to 7.30 were found for Oc1ccc(/C=C/c2cc(-c3cc4cc(Cl)ccc4o3)n[nH]2)cc1 [Entry 63, 4-{(E)-2-[3-(5-chloro-1-benzofuran-2-yl)-1H-pyrazol-5-yl]ethenyl}phenol] in this work.
A pIC50 (c-Kit) of 5.30 to 6.30 and a pIC50 (flt-3) of 5.30 to 6.30 were found for CCN1CCN(c2ccc3[nH]c(-c4cc(-c5ccc(NC(=O)NC(C)(C)C)cc5)[nH]n4)nc3c2)CC1 [Entry 64, N-(1,1-dimethylethyl)-N′-(4-{3-[5-(4-ethylpiperazin-1-yl)-1H-benzimidazol-2-yl]-1H-pyrazol-5-yl}phenyl)urea] in this work.
A pIC50 (c-Kit) of 5.30 to 6.30 and a pIC50 (flt-3) of 6.30 to 7.30 were found for Oc1ccc(/C=C/c2cc(-c3ccncc3)n[nH]2)cc1 [Entry 65, 4-[(E)-2-(3-pyridin-4-yl-1H-pyrazol-5-yl)ethenyl]phenol] in this work.
A pIC50 (c-Kit) of 5.30 to 6.30 and a pIC50 (flt-3) of 5.30 to 6.30 were found for Oc1ccc(/C=C/c2cc(-c3cccc(Cl)c3)n[nH]2)cc1 [Entry 66, 4-{(E)-2-[3-(3-chlorophenyl)-1H-pyrazol-5-yl]ethenyl}phenol] in this work.
A pIC50 (c-Kit) of 5.30 to 6.30 and a pIC50 (flt-3) of 5.30 to 6.30 were found for COc1ccccc1-c1cc(/C=C/c2ccc(O)cc2)n[nH]1 [Entry 67, 4-((E)-2-{5-[2-(methyloxy)phenyl]-1H-pyrazol-3-yl}ethenyl)phenol] in this work.
A pIC50 (c-Kit) of 5.30 to 6.30 and a pIC50 (flt-3) of 6.30 to 7.30 were found for Oc1ccc(/C=C/c2cc(-c3ccccc3Cl)n[nH]2)cc1 [Entry 68, 4-{(E)-2-[3-(2-chlorophenyl)-1H-pyrazol-5-yl]ethenyl}phenol] in this work.
A pIC50 (c-Kit) of 5.30 to 6.30 and a pIC50 (flt-3) of 6.30 to 7.30 were found for Oc1ccc(/C=C/c2cc(-c3cccnc3)n[nH]2)cc1 [Entry 69, 4-[(E)-2-(3-pyridin-3-yl-1H-pyrazol-5-yl)ethenyl]phenol] in this work.
A pIC50 (c-Kit) of 5.30 to 6.30 and a pIC50 (flt-3) of 5.30 to 6.30 were found for COc1cccc(-c2cc(/C=C/c3ccc(O)cc3)n[nH]2)c1 [Entry 70, 4-((E)-2-{5-[3-(methyloxy)phenyl]-1H-pyrazol-3-yl}ethenyl)phenol] in this work.
A pIC50 (c-Kit) of 5.30 to 6.30 and a pIC50 (flt-3) of 5.30 to 6.30 were found for CC(C)(C)OC(=O)Nc1ccc(-c2cc(/C=C/c3ccccc3)n[nH]2)cc1 [Entry 71, 1,1-dimethylethyl(4-{3-[(E)-2-phenylethenyl]-1H-pyrazol-5-yl}phenyl)carbamate] in this work.
A pIC50 (c-Kit) of 5.30 to 6.30 and a pIC50 (flt-3) of 5.30 to 6.30 were found for Oc1ccc(/C=C/c2cc(-c3ccc(Cl)c(Cl)c3)n[nH]2)cc1 [Entry 72, 4-{(E)-2-[3-(3,4-dichlorophenyl)-1H-pyrazol-5-yl]ethenyl}phenol] in this work.
Oc1ccc2cc(-c3cc(/C=C/c4ccccc4)[nH]n3)oc2c1 [Entry 73, 2-{5-[(E)-2-phenylethenyl]-1H-pyrazol-3-yl}-1-benzofuran-6-ol] was tested, and the pIC50 (c-Kit) was 5.30 to 6.30 and the pIC50 (flt-3) was > 7.30.
A pIC50 (c-Kit) of 5.30 to 6.30 and a pIC50 (flt-3) of 6.30 to 7.30 were found for Oc1ccc(/C=C/c2cc(-c3cccc(F)c3)[nH]n2)cc1 [Entry 74, 4-{(E)-2-[5-(3-fluorophenyl)-1H-pyrazol-3-yl]ethenyl}phenol] in this work.
A pIC50 (c-Kit) of 5.30 to 6.30 and a pIC50 (flt-3) of 5.30 to 6.30 were found for c1ccc(-c2cc(-c3nc4ccccc4[nH]3)n[nH]2)cc1 [Entry 75, 2-(5-phenyl-1H-pyrazol-3-yl)-1H-benzimidazole] in this work.
A pIC50 (c-Kit) of 5.30 to 6.30 and a pIC50 (flt-3) of 5.30 to 6.30 were found for Nc1ccc(-c2cc(-c3nc4ccccc4[nH]3)n[nH]2)cc1 [Entry 77, 4-[3-(1H-benzimidazol-2-yl)-1H-pyrazol-5-yl]aniline] in this work.
A pIC50 (c-Kit) of 5.30 to 6.30 and a pIC50 (flt-3) of 5.30 to 6.30 were found for Oc1ccc(/C=C/c2cc(-c3cccc(-c4ccccc4)c3)[nH]n2)cc1 [Entry 78, 4-[(E)-2-(5-biphenyl-3-yl-1H-pyrazol-3-yl)ethenyl]phenol] in this work.
